Structures can show the parent of a compound that is named as a salt.
System: Balb/c male mice kept immersed in water (stress from sleep deprivation)
Test: Water immersion sleep deprivation test, weight-loaded swimming; critical swimming time = time to nose first submerged for at least 10 seconds (Examples 1 and 3)
Conditions: for anti-fatigue action: fatigue animal models
Text: The anti-fatigue action in the present invention, or its effectiveness as “anti-fatigue agents” can be verified by such a method as measuring the swimming time in a water immersion sleep deprivation test. Mice that have been kept in an environment such as water immersion where they are unable to have a good sleep or take a rest position so they cannot have a physical or mental rest are forced to swim under a weight load and the critical swimming time (e.g., the time it takes for the mouse to have its nose first submerged in the water for a period of ten seconds or longer or the time it takes for the mouse to have its nose finally submerged in the water (and incapable of rising up to its surface again)) is measured to confirm the degree of their fatigue. Since this is an animal model for physical or mental fatigue, an extension of the swimming time as achieved by administering it with the test substance means the verification of resistance to fatigue, as exemplified by prevention or relief of physical and/or mental fatigue or any accompanying muscle or other pains, a sufficient increase in body strength to extend the time to total exhaustion, and maintenance of physical vigor in the tired model.
The anti-fatigue effect was evaluated by the following partial modification of the method of Tanaka et al. (Neuroscience, Let. 352, 159-162, 2003): Balb/c male mice (8-week old) were purchased from Japan SLC, Inc. and conditioned in a test environment for a week, and the animals that had grown normally were subjected to the test. They were divided into five groups, as identified in Table 1, such that each group consisted of 10 animals and had the same average body weight. […] Four of those five groups were water immersion groups under stress from sleep deprivation, which were kept in breeding cages, not on paper chips but in tap water (23° C.) supplied to a depth of 7 mm, thereby depriving the mice of sleep. During a two-day immersion in water to deprive sleep, the mice were administered orally with the associated test samples for two days on a one-dose-a-day basis. Of the two test samples, the sesamin-class compounds were dissolved in olive oil and the thiamin in distilled water. The order of administration was the thiamin followed by the sesamin-class compounds; as controls, distilled water and olive oil were administered orally.
After two days of keeping under immersion in water or normal keeping, each mouse was fitted with a weight at the tail which corresponded to 8% of its body weight, and was allowed to swim in a water tank of 18 cm^φ that was filled with water to a depth of 30 cm; the time it took for each mouse to have its nose first submerged in the water for a period of at least 10 seconds was measured as the critical swimming time. […] The degree by which the administration of the test samples (sesamin-class compounds and/or vitamin B1 class compound) could shorten the critical swimming time was measured to evaluate the anti-fatigue action of the test samples.
The anti-fatigue action from independent administration of vitamin B1 class compound was evaluated as in Example 1, except that the mice were divided into nine groups as identified in Tables 3 and 4.

With Cc1ncc(C[n+]2csc(CCO)c2C)c(N)n1 [vitamin B1 class compound, thiamine hydrochloride] the critical swimming time (Example 1, FIG. 1, 50 mg/kg vitamin B1 class compound oral, once a day for two days (comparative group 2) vs comparative group 1) was “no recognizable change in critical swimming time”, the critical swimming time (Example 3, FIG. 3, 5 mg/kg vitamin B1 class compound alone (reference group 1) vs comparative group 7) was “comparable” and the critical swimming time (Example 3, FIG. 3, 10 mg/kg vitamin B1 class compound alone (reference group 2) vs comparative group 7) was “comparable”. For the same molecule, the critical swimming time (Example 3, FIG. 3, 25 mg/kg vitamin B1 class compound alone (reference group 3) vs comparative group 7) was “comparable”, the critical swimming time (Example 3, FIG. 4, 50 mg/kg vitamin B1 class compound alone (reference group 4) vs comparative group 8) was “comparable” and the critical swimming time (Example 3, FIG. 4, 100 mg/kg vitamin B1 class compound alone (reference group 5) vs comparative group 8) was “longer”. The anti-fatigue action (only vitamin B1 class compound orally, 5 to 10 mg/kg (FIG. 3)) was “no anti-fatigue action was observed”, the anti-fatigue action (vitamin B1 class compound independently, 5 mg/kg (FIGS. 3 and 4)) was “no anti-fatigue action was observed” and the anti-fatigue action (vitamin B1 class compound independently, 10 mg/kg (FIGS. 3 and 4)) was “no anti-fatigue action was observed”. For the same molecule, the anti-fatigue action (vitamin B1 class compound independently, 25 mg/kg (FIGS. 3 and 4)) was “no anti-fatigue action was observed”, the anti-fatigue action (vitamin B1 class compound independently, 50 mg/kg (FIGS. 3 and 4)) was “no anti-fatigue action was observed” and the anti-fatigue action (vitamin B1 class compound independently, 100 mg/kg (FIGS. 3 and 4)) was “enhanced”.

From patent US8703789B2, “Compositions incorporating sesamin-class compounds and vitamin B1 class compounds” (Suntory Holdings Limited, priority 2007, dated 2014)
